Results reported in patent publication US8952024B2, “Herbicidal pyrimidone derivatives” (E I du Pont de Nemours and Company, priority 2009, dated 2015).

Experiments:
Format in all cases: in vivo
[1] = tested on: windgrass (Apera spica-venti); experiment: Test B postemergence plant response; details: Postemergence
Summary of the method: (§1)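 Visual ratings from 0 (no effect) to 100 (complete control), made against controls 13–15 days after treatment, kept in a greenhouse. Compounds were applied postemergence to potted plants at the 1- to 4-leaf stage (2–18 cm).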

[2] = tested on: canarygrass (Phalaris minor); experiment: Test B postemergence plant response; details: Postemergence
Summary of the method: as §1

[3] = tested on: chickweed (Stellaria media); experiment: Test B postemergence plant response; details: Postemergence
Summary of the method: as §1

[4] = tested on: winter barley (Hordeum vulgare); experiment: Test B postemergence plant response; details: Postemergence
Summary of the method: as §1

[5] = tested on: giant foxtail (Setaria faberii); experiment: Test B pre-/postemergence plant response
Source text: (§2) Seeds of plant species selected from blackgrass (Alopecurus myosuroides), downy bromegrass (Bromus tectorum), green foxtail (Setaria viridis), Italian ryegrass (Lolium multiflorum), wheat (Triticum aestivum), wild oat (Avena fatua), deadnettle (henbit deadnettle, Lamium amplexicaule), galium (catchweed bedstraw, Galium aparine), bermudagrass (Cynodon dactylon), Surinam grass (Brachiaria decumbens), cocklebur (Xanthium strumarium), corn (Zea mays), large crabgrass (Digitaria sanguinalis), woolly cupgrass (Eriochloa villosa), giant foxtail (Setaria faberii), goosegrass (Eleusine indica), johnsongrass (Sorghum halepense), kochia (Kochia scoparia), lambsquarters (Chenopodium album), morningglory (Ipomoea coccinea), nightshade (eastern black nightshade, Solanum ptycanthum), yellow nutsedge (Cyperus esculentus), pigweed (Amaranthus retroflexus), ragweed (common ragweed, Ambrosia elatior), Russian thistle (Salsola kali), soybean (Glycine max), sunflower (common oilseed sunflower, Helianthus annuus) and velvetleaf (Abutilon theophrasti) were planted into a blend of loam soil and sand and treated preemergence with test compounds formulated in a non-phytotoxic solvent mixture which included a surfactant.
(§3) At the same time, plants selected from these crop and weed species and also winter barley (Hordeum vulgare), canarygrass (Phalaris minor), chickweed (Stellaria media) and windgrass (Apera spica-venti) were planted in pots containing Redi-Earth® planting medium (Scotts Company, 14111 Scottslawn Road, Marysville, Ohio 43041) comprising spaghnum peat moss, vermiculite, wetting agent and starter nutrients and treated with postemergence applications of some of the test chemicals formulated in the same manner. Plants ranged in height from 2 to 18 cm (1- to 4-leaf stage) for postemergence treatments.
(§4) Treated plants and controls were maintained in a greenhouse for 13 to 15 days, after which time all treated plants were visually evaluated and compared to controls. Plant response ratings, summarized in Table B, are based on a scale of 0 to 100 where 0 is no effect and 100 is complete control. A dash (-) response means no test result.

[6] = tested on: wild oat (Avena fatua); experiment: Test B pre-/postemergence plant response
Source text: as §2, §3, §4

[7] = tested on: morningglory (Ipomoea coccinea); experiment: Test B pre-/postemergence plant response
Source text: as §2, §3, §4

[8] = tested on: bermudagrass (Cynodon dactylon); experiment: Test B pre-/postemergence plant response
Source text: as §2, §3, §4

[9] = tested on: cocklebur (Xanthium strumarium); experiment: Test B pre-/postemergence plant response
Source text: as §2, §3, §4

[10] = tested on: corn (Zea mays); experiment: Test B pre-/postemergence plant response
Source text: as §2, §3, §4

[11] = tested on: johnsongrass (Sorghum halepense); experiment: Test B pre-/postemergence plant response
Source text: as §2, §3, §4

[12] = tested on: soybean (Glycine max); experiment: Test B pre-/postemergence plant response
Source text: as §2, §3, §4

[13] = tested on: kochia (Kochia scoparia); experiment: Test B pre-/postemergence plant response; details: Preemergence
Source text: as §2, §3, §4

[14] = tested on: blackgrass (Alopecurus myosuroides); experiment: Test B pre-/postemergence plant response
Source text: as §2, §3, §4

[15] = 31 g ai/ha, scale 0 to 100 (0 no effect, 100 complete control)
[16] = 62 g ai/ha, scale 0 (no effect) to 100 (complete control), 13 to 15 days
[17] = 125 g ai/ha, visual rating after 13 to 15 days, scale 0 (no effect) to 100 (complete control)
[18] = 250 g ai/ha, Preemergence, 0 to 100 scale
[19] = Postemergence, 31 g ai/ha, scale 0 to 100 (0 no effect, 100 complete control)
[20] = Postemergence, 62 g ai/ha, scale 0 (no effect) to 100 (complete control), 13 to 15 days
[21] = Postemergence, 125 g ai/ha, visual rating after 13 to 15 days, scale 0 (no effect) to 100 (complete control)
[22] = Postemergence, 250 g ai/ha, scale 0 to 100
[23] = Preemergence, 31 g ai/ha, scale 0 to 100 (0 no effect, 100 complete control)
[24] = Preemergence, 62 g ai/ha, scale 0 to 100 (0 no effect, 100 complete control)
[25] = Preemergence, 125 g ai/ha, 0 to 100 scale

SMILES: O=C1CCCC(O)=C1C(=O)c1cnc(-c2ccccc2)n(-c2ccccc2F)c1=O [Compound 26]
- Plant response rating, Windgrass [1, 15]: 10
- Plant response rating, Windgrass [1, 16]: 30
- Plant response rating, Windgrass [1, 17]: 40
- Windgrass plant response rating ([1]; 250 g ai/ha, scale 0 to 100): 60
- Plant response rating, Canarygrass [2, 15]: 20
- Plant response rating, Canarygrass [2, 16]: 30
- Plant response rating, Canarygrass [2, 17]: 50
- Canarygrass plant response rating ([2]; 250 g ai/ha, scale 0 to 100): 60
- Plant response rating, Chickweed [3, 15]: 40
- Plant response rating, Chickweed [3, 16]: 50
- Plant response rating, Chickweed [3, 17]: 85
- Chickweed plant response rating ([3]; 250 g ai/ha, scale 0 to 100): 85
- Plant response rating, Barley [4, 15]: 0
- Plant response rating, Barley [4, 16]: 0
- Plant response rating, Barley ([4]; 125 g ai/ha, scale 0 to 100 (0 no effect, 100 complete control), 13 to 15 days): 0
- Barley plant response rating ([4]; 250 g ai/ha, scale 0 to 100): 0
- Plant response rating, Foxtail, Giant [5, 18]: 90
- Plant response rating, Foxtail, Giant [5, 19]: 60
- Plant response rating, Foxtail, Giant [5, 20]: 60
- Plant response rating, Foxtail, Giant [5, 21]: 70
- Foxtail, Giant plant response rating [5, 22]: 95
- Plant response rating, Foxtail, Giant [5, 23]: 5
- Plant response rating, Foxtail, Giant [5, 24]: 10
- Foxtail, Giant plant response rating [5, 25]: 45
- Plant response rating, Oat, Wild [6, 18]: 5
- Plant response rating, Oat, Wild [6, 19]: 40
- Plant response rating, Oat, Wild [6, 20]: 40
- Plant response rating, Oat, Wild [6, 21]: 45
- Oat, Wild plant response rating [6, 22]: 60
- Plant response rating, Oat, Wild [6, 23]: 0
- Plant response rating, Oat, Wild [6, 24]: 0
- Oat, Wild plant response rating [6, 25]: 0
- Plant response rating, Morningglory [7, 18]: 100
- Plant response rating, Morningglory [7, 19]: 50
- Plant response rating, Morningglory [7, 20]: 50
- Plant response rating, Morningglory [7, 21]: 75
- Morningglory plant response rating [7, 22]: 75
- Plant response rating, Morningglory [7, 23]: 100
- Plant response rating, Morningglory [7, 24]: 100
- Morningglory plant response rating [7, 25]: 100
- Plant response rating, Bermudagrass [8, 18]: 100
- Plant response rating, Bermudagrass [8, 19]: 40
- Plant response rating, Bermudagrass [8, 20]: 50
- Plant response rating, Bermudagrass ([8]; Postemergence, 125 g ai/ha, scale 0 to 100 (0 no effect, 100 complete control), 13 to 15 days): 60
- Bermudagrass plant response rating [8, 22]: 75
- Plant response rating, Bermudagrass [8, 23]: 5
- Plant response rating, Bermudagrass [8, 24]: 70
- Bermudagrass plant response rating [8, 25]: 98
- Plant response rating, Cocklebur [9, 18]: 98
- Plant response rating, Cocklebur [9, 19]: 80
- Plant response rating, Cocklebur [9, 20]: 80
- Plant response rating, Cocklebur [9, 21]: 95
- Cocklebur plant response rating [9, 22]: 100
- Plant response rating, Cocklebur [9, 23]: 10
- Plant response rating, Cocklebur [9, 24]: 40
- Cocklebur plant response rating [9, 25]: 85
- Plant response rating, Corn [10, 18]: 0
- Plant response rating, Corn [10, 19]: 35
- Plant response rating, Corn [10, 20]: 35
- Plant response rating, Corn [10, 21]: 40
- Corn plant response rating [10, 22]: 50
- Plant response rating, Corn [10, 23]: 0
- Plant response rating, Corn [10, 24]: 0
- Corn plant response rating [10, 25]: 0
- Plant response rating, Johnsongrass [11, 18]: 90
- Plant response rating, Johnsongrass [11, 19]: 35
- Plant response rating, Johnsongrass [11, 20]: 50
- Plant response rating, Johnsongrass [11, 21]: 50
- Johnsongrass plant response rating [11, 22]: 70
- Plant response rating, Johnsongrass [11, 23]: 0
- Plant response rating, Johnsongrass [11, 24]: 10
- Johnsongrass plant response rating [11, 25]: 60
- Plant response rating, Soybean [12, 18]: 90
- Plant response rating, Soybean [12, 19]: 95
- Plant response rating, Soybean [12, 20]: 95
- Plant response rating, Soybean [12, 21]: 95
- Soybean plant response rating [12, 22]: 98
- Plant response rating, Soybean [12, 23]: 50
- Plant response rating, Soybean [12, 24]: 60
- Soybean plant response rating [12, 25]: 80
- Plant response rating, Kochia ([13]; 250 g ai/ha, 0 to 100 scale): 100
- Plant response rating, Kochia [13, 15]: 80
- Plant response rating, Kochia ([13]; 62 g ai/ha, scale 0 to 100 (0 no effect, 100 complete control)): 100
- Kochia plant response rating ([13]; 125 g ai/ha, 0 to 100 scale): 100
- Plant response rating, Blackgrass [14, 18]: 10
- Plant response rating, Blackgrass [14, 19]: 0
- Plant response rating, Blackgrass [14, 20]: 0
- Plant response rating, Blackgrass [14, 21]: 10
- Blackgrass plant response rating [14, 22]: 40
- Plant response rating, Blackgrass [14, 23]: 0
- Plant response rating, Blackgrass [14, 24]: 0
- Blackgrass plant response rating [14, 25]: 0
